Consider nine compounds from patent US5776948A, “Fluoroquinoline derivative” (Chugai Seiyaku Kabushiki Kaisha, priority 1992, dated 1998).

One may read the IC50 as the concentration needed to halve the response being measured. The term MIC denotes the least concentration at which growth counts as inhibited.

SMILES strings stand for the structures. In brackets after ≈: the same amount, converted by molar mass. Read-outs that look alike come from different tables or passages of the source.

Series [1] concerns mouse lymphatic leukemia cell line L1210. As to the kind of experiment: Cytotoxicity test (MTT method). The class given is cell-based. Here is the method:
The 50% inhibitory concentrations (IC50) of the test compounds on a mouse lymphatic leukemia cell line L1210 were determined by the MTT [3-(4,5-dimethylthiazol-2-yl)-2,5-diphenyltetrazolium bromide] method.
Namely, 2×10^4 L1210 cells were incubated in 200 μl of a culture medium (RPMI-1640 medium containing 10% of fetal bovine serum) containing a two-fold serial dilution of a test compound at 37° C. for a day. Four hours before the completion of the incubation, 10 μl of a 5 mg/ml solution of MTT was added. When the incubation was completed, the culture medium was eliminated by sucking and the insoluble formazan, which had been reduced by the mitochondrial dehydrogenase of the cells, was extracted with 100 μl of dimethylsulfoxide. Then the absorbance was measured at 550 nm. The cell propagation ratio was expressed in the ratio of the formazan formation of the test lot to that of the control lot wherein cells were incubated in a medium free from any test compound. Then IC50 was determined by the probit method.
On the technique in general: Tetrazolium assays rely on reduction of a dye to a coloured formazan, in cell work by metabolically active cells.

For series [2] the following is noted: background art; cited from earlier work.
A further series has as its system MRSA RN-10. Briefly: Antibacterial activity test, MIC by agar plate dilution method. The class given is cell-based. The note with it: unit assumed. Here is the method:
(§1) The minimum inhibitory concentrations (MIC) of the test compounds were measured by the publicly known agar plate dilution method.

For the next series, the system named is P. rettgeri IFO 13501. The description is as above. The series is classed as cell-based. The note with it: unit assumed. Here is the method:
as §1

For the next series, the system named is C. freundii IFO 12681. Described as above. The series is classed as cell-based. The note with it: unit assumed. On the procedure:
as §1

A further series deals with JU-5. The series is described as above. The class given is cell-based. The conditions noted are these: JU-5 (listed under S. aureus); unit assumed. On the procedure: as §1
The next series deals with E. coli NIHJ JC-2. The series is described as above. The class given is cell-based. The note with it: unit assumed. On the procedure: as §1
A further series has as its system P. mirabilis IFO 13300. Described as above. The class given is cell-based. The conditions noted are these: unit assumed. On the procedure: as §1
In another series the test system is S. aureus 209P. The series is described as above. The class given is cell-based. The note with it: unit assumed. On the procedure: as §1
In a further series the test system is S. marcescens IFO 12648. The description is as above. The series is classed as cell-based. The note with it: unit assumed. On the procedure:
as §1

For series [3], the system named is A. calcoaceticus IFO 12552. The description is as above. The class given is cell-based. The conditions noted are these: unit assumed. Here is the method: as §1
For a further series, the system named is E. cloacae IFO 3320. The description is as above. The series is classed as cell-based. The conditions noted are these: unit assumed. Here is the method: as §1
The next series concerns B. subtilis ATCC 6633. The series is described as above. The conditions noted are these: unit assumed. The class given is cell-based. Here is the method: as §1
Another series concerns M. morganii IFO 3848. The description is as above. The class given is cell-based. The conditions noted are these: unit assumed. Here is the method: as §1
A further series concerns A. faecalis IFO 13111. Described as above. The series is classed as cell-based. The conditions noted are these: unit assumed. Here is the method:
as §1

A further series relates to E. aeruginosa IFO 13534. The description is as above. The class given is cell-based. The conditions noted are these: unit assumed. On the procedure:
as §1

The subject of another series is X. maltophilia IFO 14161. The series is described as above. The series is classed as cell-based. The conditions noted are these: unit assumed. On the procedure: as §1
In a further series the test system is S. typhimurium LT-2. The series is described as above. The conditions noted are these: unit assumed. The series is classed as cell-based. Here is the method:
as §1

The subject of the next series is CSJ 1922. The description is as above. The class given is cell-based. The conditions noted are these: CSJ 1922 (listed under E. coli); unit assumed. On the procedure:
as §1

Another series concerns P. aeruginosa GNB-139. The series is described as above. The conditions noted are these: unit assumed. The class given is cell-based. Here is the method:
as §1

The test system of another series is K. pneumoniae B-54. The description is as above. The class given is cell-based. The note with it: unit assumed. On the procedure:
as §1

For the next series, the system named is P. vulgaris IFO 3851. Described as above. The series is classed as cell-based. The note with it: unit assumed. On the procedure:
as §1

The subject of another series is S. epidermidis IFO 12993. The series is described as above. The class given is cell-based. The conditions noted are these: unit assumed. On the procedure: as §1
Another series has as its system TO-101. Described as above. The class given is cell-based. The conditions noted are these: TO-101 (listed under S. marcescens); unit assumed. Here is the method:
as §1

The test system of another series is B. cereus IFO 13494. The series is described as above. The series is classed as cell-based. The conditions noted are these: unit assumed. On the procedure:
as §1

The nature of series [4]: Phototoxicity test (UVA irradiation, MTT method). The series is classed as cell-based. More on the design: dose or concentration left out as unconfirmed. The conditions noted are these: mouse, l1210 cells; L1210, UVA 0.5 J, 2 days incubation; read-out: Phototoxicity (%; propagation ratio under 0.5 J-irradiation to non-irradiation lot). On the procedure:
The phototoxicity was determined by enhancing the cytotoxicity of a test compound on L1210 via UV irradiation. […] After the irradiation, 100 μl of a culture medium was added and the cells were incubated at 37° C. for 2 days.

[5] abbreviates: L1210 cells, 37° C., a day, MTT, read-out: IC50.

As to `O=C(O)c1cn(C2CC2)c2cc(N3CCNCC3)c(F)cc2c1=O` [Ciprofloxacin, reference compound], the half-maximal inhibitory concentration (IC50) in series [1] (setting [5]) is 77 µg/mL (≈ 232 µM).

For `COc1c(C2(N)CCOCC2)c(F)cc2c(=O)c(C(=O)O)cn(C3CC3)c12.Cl` [Ex. 18, 7-(4-amino-2,3,5,6-tetrahydropyran-4-yl)-1-cyclopropyl-6-fluoro-8-methoxy-1,4-dihydro-4-oxo-3-quinolinecarboxylic acid hydrochloride], in [1] (setting [5]), the 50% inhibitory concentration (IC50) was more than 800 µg/mL.

As for `CCn1cc(C(=O)O)c(=O)c2cc(F)c(N3CCNCC3)cc21` [norfloxacin], in series [2], the “solubility under physiological conditions” value is listed as “poor solubility”.

As to `COc1c(C2(N)CC2)c(F)cc2c(=O)c(C(=O)O)cn(C3CC3)c12.Cl` [Ex. 26, 7-(1-aminocyclopropyl)-1-cyclopropyl-6-fluoro-8-methoxy-1,4-dihydro-4-oxo-3-quinolinecarboxylic acid hydrochloride], the MIC in the series on MRSA RN-10 was determined as 0.39 µg/mL; in the series on P. rettgeri IFO 13501 it was 0.2 µg/mL; in the series on C. freundii IFO 12681, 0.1 µg/mL; against JU-5, 0.2 µg/mL; in the series with E. coli NIHJ JC-2, 0.2 µg/mL; against P. mirabilis IFO 13300, 0.05 µg/mL. Besides, the MIC was 0.39 µg/mL with S. aureus 209P; 0.2 µg/mL in the series on S. marcescens IFO 12648; 0.78 µg/mL in series [3]; 0.025 µg/mL with E. cloacae IFO 3320; 0.05 µg/mL in the series on B. subtilis ATCC 6633; 0.05 µg/mL against M. morganii IFO 3848. Moreover, the MIC in the series on A. faecalis IFO 13111 stood at 1.56 µg/mL; against E. aeruginosa IFO 13534 it was 0.2 µg/mL; against X. maltophilia IFO 14161, 0.78 µg/mL; in the series on S. typhimurium LT-2, 0.2 µg/mL; in the series on CSJ 1922 it was 0.1 µg/mL; against P. aeruginosa GNB-139 it was 0.78 µg/mL. The minimum inhibitory concentration (MIC) came to 0.1 µg/mL against K. pneumoniae B-54; 0.1 µg/mL against P. vulgaris IFO 3851; 0.78 µg/mL in the series on S. epidermidis IFO 12993; 0.2 µg/mL with TO-101; 0.2 µg/mL in the series on B. cereus IFO 13494. Besides, the viability at 48 h in series [4] was more than 100%. The IC50 in [1] (setting [5]) was determined as 323 µg/mL.

Regarding `CCn1cc(C(=O)O)c(=O)c2cc(F)c(N3CCNCC3)nc21` [enoxacin], in series [2], the “solubility under physiological conditions” value is reported as “poor solubility”.

As for `COc1c(C2(N)CCCC2)c(F)cc2c(=O)c(C(=O)O)cn(C3CC3)c12.Cl` [Ex. 16, 7-(1-aminocyclopentyl)-1-cyclopropyl-6-fluoro-8-methoxy-1,4-dihydro-4-oxo-3-quinolinecarboxylic acid hydrochloride], the MIC in the series with MRSA RN-10 came to 1.56 µg/mL; in the series on P. rettgeri IFO 13501, 0.2 µg/mL; against C. freundii IFO 12681, 0.2 µg/mL; with JU-5, 0.39 µg/mL; with E. coli NIHJ JC-2 it was 0.39 µg/mL; against P. mirabilis IFO 13300, 0.2 µg/mL. Moreover, the MIC in the series on S. aureus 209P is 1.56 µg/mL; against S. marcescens IFO 12648 it was 0.39 µg/mL; in series [3] it was 0.78 µg/mL; against E. cloacae IFO 3320, 0.1 µg/mL; with B. subtilis ATCC 6633, 0.1 µg/mL; with M. morganii IFO 3848, 0.2 µg/mL. In addition, the minimal inhibitory concentration (MIC) in the series on A. faecalis IFO 13111 came out at 1.56 µg/mL; in the series on E. aeruginosa IFO 13534, 0.39 µg/mL; in the series on X. maltophilia IFO 14161, 0.78 µg/mL; in the series with S. typhimurium LT-2, 0.39 µg/mL; against CSJ 1922, 0.2 µg/mL; against P. aeruginosa GNB-139, 3.13 µg/mL. The MIC stood at 0.2 µg/mL in the series with K. pneumoniae B-54; 0.2 µg/mL in the series with P. vulgaris IFO 3851; 3.13 µg/mL against S. epidermidis IFO 12993; 0.39 µg/mL in the series on TO-101; 0.78 µg/mL against B. cereus IFO 13494. Moreover, the half-maximal inhibitory concentration (IC50) in [1] (setting [5]) is 399 µg/mL.

For `COc1c(C2(N)CCCCC2)c(F)cc2c(=O)c(C(=O)O)cn(C3CC3)c12.Cl` [Ex. 17, 7-(1-aminocyclohexyl)-1-cyclopropyl-6-fluoro-8-methoxy-1,4-dihydro-4-oxo-3-quinolinecarboxylic acid hydrochloride], it took 399 µg/mL to reach half-maximal inhibition in series [1] (L1210) (IC50).

With `CC1COc2c(N3CCN(C)CC3)c(F)cc3c(=O)c(C(=O)O)cn1c23` (stereo not shown) [Ofloxacin, reference compound], the viability at 48 h in series [4] is 69%. For the same compound, the half-inhibitory concentration (IC50) in [1] (setting [5]) came to 195 µg/mL (≈ 540 µM).

Consider `COc1c(C2(N)CCC2)c(F)cc2c(=O)c(C(=O)O)cn(C3CC3)c12.Cl` [Ex. 23, 7-(1-aminocyclobutyl)-1-cyclopropyl-6-fluoro-8-methoxy-1,4-dihydro-4-oxo-3-quinolinecarboxylic acid hydrochloride], for which the minimum inhibitory concentration (MIC) against MRSA RN-10 amounted to 0.78 µg/mL; against P. rettgeri IFO 13501, 0.39 µg/mL; in the series with C. freundii IFO 12681, 0.2 µg/mL; in the series on JU-5, 0.39 µg/mL; with E. coli NIHJ JC-2 it was 0.2 µg/mL; against P. mirabilis IFO 13300, 0.39 µg/mL. Further, the minimal inhibitory concentration (MIC) in the series with S. aureus 209P was 0.78 µg/mL; with S. marcescens IFO 12648, 0.78 µg/mL; in series [3], 1.56 µg/mL; in the series on E. cloacae IFO 3320 it was 0.1 µg/mL; against B. subtilis ATCC 6633, 0.1 µg/mL; in the series on M. morganii IFO 3848, 0.1 µg/mL. For the same compound, the MIC was determined as 1.56 µg/mL against A. faecalis IFO 13111; 0.39 µg/mL in the series on E. aeruginosa IFO 13534; 0.78 µg/mL against X. maltophilia IFO 14161; 0.39 µg/mL with S. typhimurium LT-2; 0.2 µg/mL in the series with CSJ 1922; 3.13 µg/mL in the series with P. aeruginosa GNB-139. The minimum inhibitory concentration (MIC) was 0.2 µg/mL with K. pneumoniae B-54; 0.2 µg/mL in the series with P. vulgaris IFO 3851; 1.56 µg/mL in the series with S. epidermidis IFO 12993; 0.39 µg/mL with TO-101; 0.78 µg/mL in the series on B. cereus IFO 13494.
